Source: ChEMBL document CHEMBL1136585, “Inhibition of inosine monophosphate dehydrogenase (IMPDH) by 2-[2-(Z)-fluorovinyl]inosine 5'-monophosphate” (Bioorg Med Chem Lett, 2003)

Experiments:
[1] = molecular target: Inosine-5'-monophosphate dehydrogenase (Escherichia coli); experiment: Inhibition of IMPDH (Inosine 5''-monophosphate dehydrogenase)from Escherichia coli B3 cells
[2] = tested on: Inosine-5'-monophosphate dehydrogenase (Escherichia coli); experiment: as above; remark: listed apart in the source

Row | Structure (SMILES) | Ki [1] [µM] | K inact [2] [s⁻¹]
1 | O=P(O)(O)OC[C@H]1O[C@@H](n2cnc3c(Cl)ncnc32)[C@H](O)[C@@H]1O | 62 | 
2 | O=P(O)(O)OC[C@H]1OC(n2cnc3c(O)nc(/C=C/F)nc32)[C@H](O)C1O (single isomer, unassigned) | 1.11 | 0.0269
